ChEMBL document CHEMBL5108016, “Design, synthesis and neurite outgrowth activity of novel ganglioside GM1 derivatives by remodeling of the fatty acid moiety” (Eur J Med Chem, 2022)
Calls of active or inactive are those of the source. No cut-off for these calls is given here.

Legend:
[1] = Cytotoxicity against mouse Neuro2a cells assessed as inhibition of cell growth incubated for 24 hrs by MTT assay; type: toxicity, cell-based, N2a
N2a [2] = assay: Induction of neurite outgrowth in mouse Neuro2a cells assessed as increase in neurite-number per cells at 25 uM incubated for 24 hrs; type: functional, cell-based
N2a [3] = assay: Induction of neurite outgrowth in mouse Neuro2a cells assessed as increase in neurite-length per cells at 25 uM incubated for 24 hrs; type: functional, cell-based
N2a [4] = assay: Induction of neurite outgrowth in mouse Neuro2a cells assessed as increase in percentage of neurite-bearing cells at 25 uM incubated for 24 hrs; type: functional, cell-based
N2a [5] = assay: Induction of neurite outgrowth in mouse Neuro2a cells assessed as increase in GAP43 protein expression at 25 uM incubated for 24 hrs by immunoblotting analysis; type: functional, cell-based

Structure (SMILES) | IC50 at 24 h [1] [µM] | Activity (N2a [2]) | Activity (N2a [3]) | Activity (N2a [4]) | Activity (N2a [5])
CCCCCC/C=C\CCCCCCCC(=O)N[C@@H](CO[C@@H]1O[C@H](CO)[C@@H](O[C@@H]2O[C@H](CO)[C@H](O[C@@H]3O[C@H](CO)[C@H](O)[C@H](O[C@@H]4O[C@H](CO)[C@H](O)[C@H](O)[C@H]4O)[C@H]3NC(C)=O)[C@H](O[C@]3(C(=O)O)C[C@H](O)[C@@H](NC(C)=O)[C@@H]([C@@H](O)[C@H](O)CO)O3)[C@H]2O)[C@H](O)[C@H]1O)[C@H](O)/C=C/CCCCCCCCCCCCCCC | > 200 | Active | Active | Active | 
CCCCCCCC/C=C/CCCCCCCC(=O)N[C@@H](CO[C@@H]1O[C@H](CO)[C@@H](O[C@@H]2O[C@H](CO)[C@H](O[C@@H]3O[C@H](CO)[C@H](O)[C@H](O[C@@H]4O[C@H](CO)[C@H](O)[C@H](O)[C@H]4O)[C@H]3NC(C)=O)[C@H](O[C@]3(C(=O)O)C[C@H](O)[C@@H](NC(C)=O)[C@@H]([C@@H](O)[C@H](O)CO)O3)[C@H]2O)[C@H](O)[C@H]1O)[C@H](O)/C=C/CCCCCCCCCCCCCCC | > 200 |  |  |  | Active
CCCCCCCC/C=C\CCCCCCCC(=O)N[C@@H](CO[C@@H]1O[C@H](CO)[C@@H](O[C@@H]2O[C@H](CO)[C@H](O[C@@H]3O[C@H](CO)[C@H](O)[C@H](O[C@@H]4O[C@H](CO)[C@H](O)[C@H](O)[C@H]4O)[C@H]3NC(C)=O)[C@H](O[C@]3(C(=O)O)C[C@H](O)[C@@H](NC(C)=O)[C@@H]([C@@H](O)[C@H](O)CO)O3)[C@H]2O)[C@H](O)[C@H]1O)[C@H](O)/C=C/CCCCCCCCCCCCC | > 200 | Active | Active | Active | Active
CCCCCC/C=C\CCCC(=O)N[C@@H](CO[C@@H]1O[C@H](CO)[C@@H](O[C@@H]2O[C@H](CO)[C@H](O[C@@H]3O[C@H](CO)[C@H](O)[C@H](O[C@@H]4O[C@H](CO)[C@H](O)[C@H](O)[C@H]4O)[C@H]3NC(C)=O)[C@H](O[C@]3(C(=O)O)C[C@H](O)[C@@H](NC(C)=O)[C@@H]([C@@H](O)[C@H](O)CO)O3)[C@H]2O)[C@H](O)[C@H]1O)[C@H](O)/C=C/CCCCCCCCCCCCC | < 25 |  |  |  | 
